Assay results: the supplement of paper PMC10307832

Legend:
Assay in all cases: relative viability (nuclei count vs DMSO), 5 days (fraction); higher = more cells survive
Bemcentinib + Navitoclax = compound: Nc1nc(Nc2ccc3c(c2)CC[C@@H](N2CCCC2)CC3)nn1-c1cc2c(nn1)-c1ccccc1CCC2 [Bemcentinib] + CC1(C)CCC(c2ccc(Cl)cc2)=C(CN2CCN(c3ccc(C(=O)NS(=O)(=O)c4ccc(N[C@H](CCN5CCOCC5)CSc5ccccc5)c(S(=O)(=O)C(F)(F)F)c4)cc3)CC2)C1 [Navitoclax] (partner 0.5 µM)
Method in brief: (§1)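 Each reported value is a median over duplicate plates. It expresses relative viability: treated-well nuclei count divided by vehicle-well nuclei count. Lung cancer cell lines in 1536-well plates were dosed by pin tool a day after seeding, alone with one drug or with a fixed anchor-drug dose plus five library-drug doses (not always all listed) in √10 steps, and nuclei were counted after 5 days.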

[1] = compound: CC1=CC=C(C=C1)C(=O)CN2C3=C(CCCC3)SC2=N [Pifithrin_alpha] + Cc1nc(NC(=O)N2CCC[C@H]2C(N)=O)sc1-c1ccnc(C(C)(C)C(F)(F)F)c1 [Alpelisib] (partner 2 µM)
Method in brief: as §1

Axitinib + Tozasertib = compound: CNC(=O)c1ccccc1Sc1ccc2c(/C=C/c3ccccn3)n[nH]c2c1 [Axitinib] + Cc1cc(Nc2cc(N3CCN(C)CC3)nc(Sc3ccc(NC(=O)C4CC4)cc3)n2)n[nH]1 [Tozasertib] (partner 0.1 µM)
Method in brief: as §1

Bemcentinib + AZD7762 = compound: Nc1nc(Nc2ccc3c(c2)CC[C@@H](N2CCCC2)CC3)nn1-c1cc2c(nn1)-c1ccccc1CCC2 [Bemcentinib] + NC(=O)Nc1cc(-c2cccc(F)c2)sc1C(=O)N[C@H]1CCCNC1 [AZD7762] (partner 0.2 µM)
Method in brief: as §1

Cell Line	relative viability (Bemcentinib + Navitoclax; first compound 0.1265 µM)	relative viability (Bemcentinib + Navitoclax; first compound 0.4 µM)	relative viability (Bemcentinib + Navitoclax; first compound 1.265 µM)	relative viability (Bemcentinib + Navitoclax; first compound 4 µM)	relative viability ([1]; first compound 1 µM)	relative viability ([1]; first compound 3.162 µM)	relative viability ([1]; first compound 10 µM)	relative viability ([1]; first compound 31.62 µM)	relative viability ([1]; first compound 100 µM)	relative viability (Axitinib + Tozasertib; first compound 0.005 µM)	relative viability (Axitinib + Tozasertib; first compound 0.01581 µM)	relative viability (Axitinib + Tozasertib; first compound 0.05 µM)	relative viability (Axitinib + Tozasertib; first compound 0.1581 µM)	relative viability (Axitinib + Tozasertib; first compound 0.5 µM)	relative viability (Bemcentinib + Navitoclax; first compound 0.04 µM)	relative viability (Bemcentinib + AZD7762; first compound 0.04 µM)	relative viability (Bemcentinib + AZD7762; first compound 0.1265 µM)	relative viability (Bemcentinib + AZD7762; first compound 0.4 µM)	relative viability (Bemcentinib + AZD7762; first compound 1.265 µM)	relative viability (Bemcentinib + AZD7762; first compound 4 µM)
NCI-H2228	1.06	1.15	0.909	1.08	0.697	0.613	0.566	0.531	0.465	0.266	0.289	0.308	0.293	0.291	–	–	–	–	–	–
IA-LM	0.988	0.975	0.841	0.725	0.917	0.757	0.356	0.442	0.423	–	–	–	–	–	0.748	–	–	–	–	–
COR-L 105	0.733	0.794	0.86	0.729	0.948	0.909	0.902	0.683	0.768	0.356	0.422	0.331	0.438	0.364	0.602	–	–	–	–	–
NCI-H358	–	–	–	–	0.895	0.958	0.87	0.566	0.687	0.105	0.0955	0.105	0.101	0.108	–	0.527	0.516	0.562	0.411	0.602
SK-MES-1	1.22	1.36	1.49	1.47	0.882	0.955	0.851	0.626	0.775	0.996	0.904	0.818	0.947	1.07	1.25	–	–	–	–	–
NCI-H2009	1.16	1.22	1.14	1.21	1.25	1.11	1.1	0.835	0.827	0.76	0.815	0.708	0.786	1.08	1.12	–	–	–	–	–
SW 1573	0.979	1.09	1.18	0.97	0.715	0.824	0.816	0.647	0.729	0.169	0.214	0.166	0.178	0.249	0.868	–	–	–	–	–
NCI-H661	–	–	–	–	0.528	0.552	0.623	0.63	0.73	0.351	0.363	0.363	0.359	0.371	–	–	–	–	–	–
UMC-11	0.327	0.34	0.317	0.307	1.09	1.07	1.05	0.842	1.16	0.211	0.195	0.2	0.202	0.206	0.274	–	–	–	–	–
NCI-H520	1.19	1.42	1.11	1.07	1.02	1.24	0.698	0.472	0.842	0.401	–	0.439	0.417	0.347	1.19	–	–	–	–	–
